Measured values: PMC6199744, “Development of Chemical Proteomics for the Folateome and Analysis of the Kinetoplastid Folateome” (ACS Infectious Diseases, 2018)
Where two headings read alike, the source gives them in different places.

System: T. brucei lysate proteins
Format: binding, Trypanosoma brucei

Q: Which results are given for `CCCCCCOc1ccc(Cc2cnc(N)nc2N)cc1` [compound 1]?
A: fold change (relative to vehicle control = 1, protein TB09.160.3270 ATP-DEPENDENT DEAD BOX HELICASE, PUTATIVE): 0.99; fold change (relative to vehicle control = 1, protein TB09.160.4250 TR[…]): 0.87; fold change (relative to vehicle control = 1, protein TB09.211.3540 GLYCEROL KINASE, GLYCOSOMAL): 0.92; fold change (relative to vehicle control = 1, protein TB11.01.0450 PROTEIN PHOSPHATASE 1, PUTATIVE): 0.96; fold change (relative to vehicle control = 1, protein TB11.01.1270 NUCLEIC ACID BINDING PROTEIN, PUTATIVE): 0.97; fold change (relative to vehicle control = 1, protein TB11.01.1290 14-3-3-I PROTEIN): 0.77; fold change (relative to vehicle control = 1, protein TB11.02.1135 DYNEIN LIGHT CHAIN, PUTATIVE): 0.88; fold change (relative to vehicle control = 1, protein TB11.02.4700 14-3-3 PROTEIN): 0.96; fold change (relative to vehicle control = 1, protein TB11.03.0815 DYNEIN LIGHT CHAIN): 0.76; fold change (relative to vehicle control = 1, protein TB11.50.0007 DYNEIN LIGHT CHAIN LC8, PUTATIVE): 0.99; fold change (relative to vehicle control = 1, protein TB427TMP.01.1400 GLYCYL-TRNA SYNTHETASE, PUTATIVE): 0.88; fold change (relative to vehicle control = 1, protein TB427TMP.01.1830 HY[…], CONSERVED): 0.86; fold change (relative to vehicle control = 1, protein TB427TMP.01.3370 […] PROTEIN, PUTATIVE): 0.94; fold change (relative to vehicle control = 1, protein TB427TMP.01.6880 CYTOSOLIC COAT PROTEIN, PUTATIVE): 0.88; fold change (relative to vehicle control = 1, protein TB427TMP.01.7490 HY[…], CONSERVED): 0.95; fold change (relative to vehicle control = 1, protein TB427TMP.01.7530 HY[…], CONSERVED): 0.92; fold change (relative to vehicle control = 1, protein TB427TMP.02.0750 T-COMPLEX PROTEIN 1, ZETA SUBUNIT, PUTATIVE): 0.94; fold change (relative to vehicle control = 1, protein TB427TMP.02.1120 ADENYL[…], PUTATIVE): 0.93; fold change (relative to vehicle control = 1, protein TB427TMP.02.1460 HY[…], CONSERVED): 0.82; fold change (relative to vehicle control = 1, protein TB427TMP.02.3120 MALIC ENZYME, PUTATIVE): 0.77; fold change (relative to vehicle control = 1, protein TB427TMP.02.4550 HY[…], CONSERVED): 0.91; fold change (relative to vehicle control = 1, protein TB427TMP.02.5450 GLUCOSE-REGULATED PROTEIN 78, PUTATIVE): 0.89; fold change (relative to vehicle control = 1, protein TB427TMP.02.5660 HY[…], CONSERVED): 0.82; fold change (relative to vehicle control = 1, protein TB427TMP.03.0090 RIBOKINASE, PUTATIVE): 0.87; fold change (relative to vehicle control = 1, protein TB427TMP.03.0460 HY[…], CONSERVED): 0.85; fold change (relative to vehicle control = 1, protein TB427TMP.160.4770 PROTEIN KINASE, PUTATIVE): 0.92; fold change (relative to vehicle control = 1, protein TB427TMP.160.4910 FLAVOPROTEIN MONOOXYGENASE, PUTATIVE): 0.89; fold change (relative to vehicle control = 1, protein TB427TMP.22.0004 HY[…], CONSERVED): 0.97; fold change (relative to vehicle control = 1, protein TB427.01.3830 GLUCOSE-6-PHOSPHATE ISOMERASE, GLYCOSOMAL): 1; fold change (relative to vehicle control = 1, protein TB427.01.4050 PROTEIN P[…] EF-HAND DOMAINS (PPEF)): 0.94; fold change (relative to vehicle control = 1, protein TB427.02.1170 RETRO[…] SPOT (RHS) PROTEIN, PUTATIVE): 0.85; fold change (relative to vehicle control = 1, protein TB427.02.6220 ADENOSINE TRANSPORTER 2, PUTATIVE): 0.95; fold change (relative to vehicle control = 1, protein TB427.03.3160 POLY(A) POLYMERASE): 0.97; fold change (relative to vehicle control = 1, protein TB427.03.3560 HY[…], CONSERVED): 0.92; fold change (relative to vehicle control = 1, protein TB427.03.4190 ENDOSOMAL INTEGRAL MEMBRANE PROTEIN, PUTATIVE): 0.99; fold change (relative to vehicle control = 1, protein TB427.03.5420 PROTEIN TRANSPORT PROTEIN SEC24): 0.8; fold change (relative to vehicle control = 1, protein TB427.04.1510 PHOSPHOLIPID-TRA[…], PUTATIVE): 0.88; fold change (relative to vehicle control = 1, protein TB427.05.1320 HY[…], CONSERVED): 0.97; fold change (relative to vehicle control = 1, protein TB427.05.300 THYMINE-7-HYDROXYLASE, PUTATIVE): 0.92; fold change (relative to vehicle control = 1, protein TB427.05.3800 GLUTAMINE HYDROLYSING (NOT AMMONIA-DEPENDENT) […] PHOSPHATE SYNTHASE, PUTATIVE): 0.88; fold change (relative to vehicle control = 1, protein TB427.05.4530 FATTY ACID ELONGASE, PUTATIVE): 0.75; fold change (relative to vehicle control = 1, protein TB427.06.2550 RNA-BINDING PROTEIN, PUTATIVE): 0.89; fold change (relative to vehicle control = 1, protein TB427.06.3650 ADP-RI[…], PUTATIVE): 0.84; fold change (relative to vehicle control = 1, protein TB427.06.3860 HY[…], CONSERVED): 0.55; fold change (relative to vehicle control = 1, protein TB427.07.2340 40S RIBOSOMAL PROTEIN S15, PUTATIVE): 0.82; fold change (relative to vehicle control = 1, protein TB427.07.2570 MRNA […], PUTATIVE): 0.69; fold change (relative to vehicle control = 1, protein TB427.07.7500 THYMINE-7-HYDROXYLASE, PUTATIVE): 0.94; fold change (relative to vehicle control = 1, protein TB427.08.3150 T-COMPLEX PROTEIN 1, GAMMA SUBUNIT, PUTATIVE): 0.9; fold change (relative to vehicle control = 1, protein TB427.08.3490 HY[…], CONSERVED): 0.94; fold change (relative to vehicle control = 1, protein TB427.08.5460 FLAGELLAR CALCIUM-BINDING PROTEIN): 0.99; fold change (relative to vehicle control = 1, protein TB427.08.6110 HY[…], CONSERVED): 0.71; fold change (relative to vehicle control = 1, protein TB427.10.11930 NAD OR NADP DEPENDENT OXIDOREDUCTASE, PUTATIVE): 0.63; fold change (relative to vehicle control = 1, protein TB427.10.12510 P-TYPE H+-ATPASE, PUTATIVE): 0.99; fold change (relative to vehicle control = 1, protein TB427.10.13110 DYNEIN LIGHT CHAIN, PUTATIVE): 0.86; fold change (relative to vehicle control = 1, protein TB427.10.13880 HY[…], CONSERVED): 0.88; fold change (relative to vehicle control = 1, protein TB427.10.14140 PYRUVATE KINASE 1): 0.98; fold change (relative to vehicle control = 1, protein TB427.10.14910 SA[…] GLYCOPROTEIN, PUTATIVE): 1; fold change (relative to vehicle control = 1, protein TB427.10.15180 […] PROTEIN, PUTATIVE): 0.82; fold change (relative to vehicle control = 1, protein TB427.10.2350 PYRUVATE DEH[…] E3 BINDING PROTEIN, PUTATIVE): 0.7; fold change (relative to vehicle control = 1, protein TB427.10.4940 NUCLEAR DBF2-RELATED KINASE): 0.93; fold change (relative to vehicle control = 1, protein TB427.10.7630 HY[…], CONSERVED): 0.98; fold change (relative to vehicle control = 1, protein TB427.10.9800 60S RIBOSOMAL PROTEIN L22): 1; fold change (relative to vehicle control = 1, protein TB927.10.12840 MIT[…] PROTEIN, PUTATIVE): 0.8; fold change (relative to vehicle control = 1, protein TB927.10.13780 GLYCOGEN SYNTHASE KINASE 3): 0.99; fold change (relative to vehicle control = 1, protein TB927.10.14980 INTR[…] PROTEIN IFT52, PUTATIVE): 0.96; fold change (relative to vehicle control = 1, protein TB927.1.2330 BETA TUBULIN): 0.9; fold change (relative to vehicle control = 1, protein TB927.1.2400 ALPHA TUBULIN): 0.89; fold change (relative to vehicle control = 1, protein TB927.10.3280 60S RIBOSOMAL PROTEINS L38, PUTATIVE): 0.97; fold change (relative to vehicle control = 1, protein TB927.10.4180 TFIIF-[…] PHOSPHATASE, PUTATIVE): 0.98; fold change (relative to vehicle control = 1, protein TB927.10.5330 40S RIBOSOMAL PROTEIN S18, PUTATIVE): 1.1; fold change (relative to vehicle control = 1, protein TB927.10.5500 HY[…], CONSERVED): 0.92; fold change (relative to vehicle control = 1, protein TB927.10.6670 DYNEIN LIGHT CHAIN, PUTATIVE): 0.95; fold change (relative to vehicle control = 1, protein TB927.2.2440 […]-ATPASE SUBUNIT 6): 0.96; fold change (relative to vehicle control = 1, protein TB927.2.2510 HY[…], CONSERVED): 0.96; fold change (relative to vehicle control = 1, protein TB927.2.3800 MRNA […], PUTATIVE): 0.87; fold change (relative to vehicle control = 1, protein TB927.3.1120 GTP-BINDING NUCLEAR PROTEIN RTB2, PUTATIVE): 0.91; fold change (relative to vehicle control = 1, protein TB927.3.3490 HIGH MOBILITY GROUP PROTEIN, PUTATIVE): 0.88; fold change (relative to vehicle control = 1, protein TB927.4.4650 […] SYNTHASE, PUTATIVE): 0.79; fold change (relative to vehicle control = 1, protein TB927.4.5310 SERINE/THREONINE-PROTEIN KINASE A, PUTATIVE): 0.99; fold change (relative to vehicle control = 1, protein TB927.5.1930 HY[…], CONSERVED): 0.78; fold change (relative to vehicle control = 1, protein TB927.6.2200 HY[…], CONSERVED): 0.92; fold change (relative to vehicle control = 1, protein TB927.6.4140 PAR[…] COMPONENT, PUTATIVE): 0.9; fold change (relative to vehicle control = 1, protein TB927.7.2500 […] SUBUNIT 1): 0.95; fold change (relative to vehicle control = 1, protein TB927.7.2700 NADH-CYTOCHROME B5 REDUCTASE, PUTATIVE): 0.76; fold change (relative to vehicle control = 1, protein TB927.7.4480 ADENOSINE 5'-[…], PUTATIVE): 0.83; fold change (relative to vehicle control = 1, protein TB927.7.4500 HY[…], CONSERVED): 0.97; fold change (relative to vehicle control = 1, protein TB927.8.1510 ATP-DEPENDENT DEAD/H RNA HELICASE, PUTATIVE): 0.94; fold change (vs vehicle control, protein TB09.160.3710 PRO[…] NUCLEAR ANTIGEN (PCNA), PUTATIVE): 0.96; fold change (vs vehicle control, protein TB11.01.4370 HY[…], CONSERVED): 0.98; fold change (vs vehicle control, protein TB427TMP.01.5690 DRBD4): 0.94; fold change (vs vehicle control, protein TB427.01.1670 HY[…], CONSERVED): 0.91; fold change (vs vehicle control, protein TB427.04.760 GAMMA-ADAPTIN 1, PUTATIVE): 0.93; fold change (vs vehicle control, protein TB427.07.1420 HY[…], CONSERVED): 0.92; fold change (vs vehicle control, protein TB427.10.11760 PUMILIO/PUF RNA BINDING PROTEIN 6): 0.96; fold change (vs vehicle control, protein TB427.10.2290 CHAPERONE PROTEIN DNAJ, PUTATIVE): 0.8; fold change (vs vehicle control, protein TB927.5.1630 HY[…], CONSERVED): 0.91
